Values of other authors in patent US10308620B2, “Muscarinic M1 receptor positive allosteric modulators” (SUVEN LIFE SCIENCES LIMITED, priority 2015, dated 2019).

Assays:
[1] = target: M1 muscarinic receptor (Homo sapiens (Human), UniProt P11229); settings: cited from earlier work
[2] = cited from earlier work

N#CC1(c2ccccn2)CCN(Cc2cc(C(=O)O)c(=O)n3ccccc23)CC1 [PQCA, 1-{[4-cyano-4-(pyridine-2-yl)piperidin-1-yl]methyl}-4-oxo-4H-quinolizine-3-carboxylic acid]
selectivity for M1 over the other muscarinic receptor sub types [1]: highly selective
gastrointestinal side effects ([2]; at doses equal to or less than a fivefold margin from the minimum effective dose): no gastrointestinal side effects
efficacy in preclinical models of cognition ([2]; in vivo): efficacious
